From article PMC6751662, “Pharmacological and functional similarities of the human neuropeptide Y system in C. elegans challenges phylogenetic views on the FLP/NPR system” (Cell Communication and Signaling : CCS, 2019)

Assays:
[1] = target: T1, NPFF2R (Homo sapiens, UniProt Q9Y5X5); assay: cAMP reporter gene assay, Gi/o, NPFF2R; type: cell-based; conditions: for cAMP assay (Gi/o), NPFF2R: 4 h, lower = higher Gi/o activity, transfected HEK293, CRE-luciferase, mean of >=3 independent experiments; for Gi (Gs) [x-fold of forskolin], NPFF2R, mean: inhibition of cAMP production induced by 1 µM forskolin (set to 1.00), transiently transfected HEK293 cells, mean of at least three independent experiments
T1 construct: expressed in transfected cells; host or cells: HEK293, transient
Protocol: Activation of Gs and Gi/o was assessed with a cAMP reporter gene assay. HEK293 cells grown to 70–80% confluency in 6-well plates were transiently co-transfected with vectors encoding the receptor and the cAMP reporter gene plasmid pGL4.29 [luc2P/CRE/Hygro] (Promega; 4 μg total, 1:1 ratio) using Metafectene Pro (3 μl/μg DNA; Biontex) following the manufacturer’s instructions. 16 h post transfection, the cells were seeded into white 384-well plates at a density of 20,000 cells/well. On the next day, the medium was removed and the cells were stimulated with 20 μl of peptide solution (or forskolin as positive control) in serum-free DMEM for 4 h. For measuring Gi/o activity, the peptide solutions additionally contained 1 μM forskolin to elevate cellular cAMP levels. After incubation, the luciferase substrate OneGlo in lysis buffer (Promega) was added and the luminescence was measured in a microplate reader Tecan Spark (Tecan). Data were analyzed with GraphPad Prism 5.03 and are shown as fold of basal or fold of forskolin in case of Gαi/o activity.
(§1) For in vitro activation, data is presented as mean ± SEM of at least three independent experiments conducted in technical triplicate. […] For the C. elegans NPRs, we considered the strongest response elicited by any of the peptides downstream of a particular receptor as the receptor’s maximal signal. This may or may not be the biological maximum that can be reached by the ‘true’ endogenous agonist. For the human receptors, the response to the established endogenous agonist reflected the maximal signal.

[2] = target: T2, NPR-4b (Caenorhabditis elegans, UniProt A0A078BTK0); assay: IP accumulation assay, chimeric GαΔ6qi4myr, NPR-4b; type: cell-based, C. elegans; conditions: 1 h, HBSS + 20 mM LiCl, HEK293 receptor + GαΔ6qi4myr, HTRF IP-One
T2 sequence (A0A078BTK0 1-376): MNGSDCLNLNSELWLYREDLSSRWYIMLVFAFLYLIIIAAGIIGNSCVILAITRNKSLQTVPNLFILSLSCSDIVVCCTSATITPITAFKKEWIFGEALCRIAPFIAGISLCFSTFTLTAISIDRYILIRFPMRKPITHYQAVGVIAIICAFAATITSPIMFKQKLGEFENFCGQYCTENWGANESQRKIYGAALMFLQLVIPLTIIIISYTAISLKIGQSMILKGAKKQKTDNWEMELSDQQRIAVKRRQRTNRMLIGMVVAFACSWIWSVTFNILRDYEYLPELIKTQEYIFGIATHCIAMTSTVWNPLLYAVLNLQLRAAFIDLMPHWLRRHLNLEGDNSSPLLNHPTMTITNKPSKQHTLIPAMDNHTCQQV
Protocol: (§2) For measuring IP accumulation, HEK293 cells grown to 70–80% confluency in 6-well plates were transiently co-transfected using Metafectene Pro (2.5 μl/μg DNA; Biontex) with plasmids containing receptor and/or mock (empty pcDNA3.1) (for endogenous Gq-coupling) using 4 μg total DNA in a ratio of 3:1 following the manufacturer’s instructions. For testing Gα16- and GαΔ6qi4myr-coupling, plasmids encoding the corresponding Gα protein were co-transfected instead of mock. Gα16 is naturally promiscuous and stimulates the phospholipase C (PLC) pathway leading to IP production, while the exchange of the C-terminal four amino acids of Gαq for the corresponding residues of Gαi1 in the chimeric GαΔ6qi4myr confers the ability to couple to Gi/o protein-preferring receptors but still stimulate PLC, thus specifically redirecting downstream cellular signaling. 16 h post transfection, the cells were seeded into white 384-well plates at a density of 20,000 cells/well. Media was removed 24 h later and the cells were incubated with the indicated concentration of peptides for 1 h in HBSS + 20 mM LiCl. IP accumulation was measured with the HTRF-based IP-One Gq kit (Cisbio) on a microplate reader (Tecan Spark).
as §1

[3] = system: mock (empty vector) transfected HEK293 cells; assay: IP accumulation assay, negative control: empty vector (mock) instead of the receptor; type: cell-based, Homo sapiens; conditions: 1 h, HBSS + 20 mM LiCl, HEK293 with empty vector instead of receptor (negative control), HTRF IP-One, mean of >=3 independent experiments
Protocol: as §2, §1

[4] = target: T3, NPR-5b (Caenorhabditis elegans, UniProt Q6F3C9); assay: IP accumulation assay (Table S8), NPR-5b; type: cell-based, C. elegans; conditions: 1 h, HBSS + 20 mM LiCl, transfected HEK293, Table S8 (title: chimeric GαΔ6qi4myr), HTRF IP-One, mean of >=3 independent experiments
T3 sequence (Q6F3C9 1-433): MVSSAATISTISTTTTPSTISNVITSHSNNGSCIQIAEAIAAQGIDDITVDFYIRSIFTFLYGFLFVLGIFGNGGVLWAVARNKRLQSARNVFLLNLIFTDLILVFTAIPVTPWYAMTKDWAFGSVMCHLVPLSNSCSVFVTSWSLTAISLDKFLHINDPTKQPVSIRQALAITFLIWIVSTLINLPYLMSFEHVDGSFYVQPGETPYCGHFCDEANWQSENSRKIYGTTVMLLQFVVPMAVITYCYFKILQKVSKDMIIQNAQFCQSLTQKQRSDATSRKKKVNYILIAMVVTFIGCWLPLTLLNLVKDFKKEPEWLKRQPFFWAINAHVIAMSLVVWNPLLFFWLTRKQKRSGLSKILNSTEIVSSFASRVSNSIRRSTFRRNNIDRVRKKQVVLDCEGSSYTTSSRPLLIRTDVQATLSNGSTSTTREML
Protocol: as §2, §1

[5] = 0.1 µM peptide + 1 µM forskolin (set to 1.00)
[6] = 10 µM peptide + 1 µM forskolin (set to 1.00)
[7] = 0.1 µM peptide (Table S8), mean of >=3 independent experiments
[8] = 10 µM peptide, mean of >=3 independent experiments (Tables S5 and S8)

T1 sequence (Q9Y5X5 103-522): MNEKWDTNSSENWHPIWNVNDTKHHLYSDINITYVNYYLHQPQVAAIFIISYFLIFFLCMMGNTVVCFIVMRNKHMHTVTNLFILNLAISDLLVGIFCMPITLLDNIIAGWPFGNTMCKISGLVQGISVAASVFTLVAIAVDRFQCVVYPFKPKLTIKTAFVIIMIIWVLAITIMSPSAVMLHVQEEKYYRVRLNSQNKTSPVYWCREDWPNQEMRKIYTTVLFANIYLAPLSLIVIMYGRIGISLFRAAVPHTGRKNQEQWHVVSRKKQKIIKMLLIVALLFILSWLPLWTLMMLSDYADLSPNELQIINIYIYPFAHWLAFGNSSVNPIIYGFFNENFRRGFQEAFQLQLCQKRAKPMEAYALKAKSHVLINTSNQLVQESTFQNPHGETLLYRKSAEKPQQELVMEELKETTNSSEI

| Substance | cAMP assay (Gi/o), NPFF2R [1, 5] | cAMP assay (Gi/o), NPFF2R [1, 6] | Gi (Gs) [x-fold of forskolin], NPFF2R, mean ([1]; 0.1 µM peptide) | Gi (Gs) [x-fold of forskolin], NPFF2R, mean ([1]; 10 µM peptide) | IP accumulation with GαΔ6qi4myr, NPR-4b [2, 7] | IP accumulation with GαΔ6qi4myr, NPR-4b [2, 8] | IP accumulation, mock ([3]; 0.1 µM peptide) | IP accumulation, mock ([3]; 10 µM peptide) | IP accumulation, NPR-5b ([4]; 0.1 µM peptide) | IP accumulation, NPR-5b ([4]; 10 µM peptide) | IP assay endog. Gαq + GαΔ6qi4myr, NPR-4b ([2]; 0.1 nM peptide (Table S5), mean of >=3 independent experiments) |
| --- | --- | --- | --- | --- | --- | --- | --- | --- | --- | --- | --- |
| APLEGFEDMSGFLRTIDGIQKPRF-NH2 [FLP-33, NPY-like C. elegans FLP with C-terminal RxRF/Ya signature] | 0.82 x-fold of forskolin | 0.16 x-fold of forskolin |  |  |  |  |  |  |  |  |  |
| RGPSGPLAF-NH2 [[R8A]FLP-15-2] |  |  | 0.94 x-fold of forskolin | 0.97 x-fold of forskolin |  |  |  |  |  |  |  |
| NPENDTPFGTMRF-NH2 [FLP-3-4, C. elegans FMRFamide-like peptide, C-terminally amidated, synthesized by SPPS] |  |  |  |  | 4.77 x-fold of basal | 11.46 x-fold of basal | 1.08 x-fold of basal | 1.16 x-fold of basal | 1.19 x-fold of basal | 8.18 x-fold of basal |  |
| AGSDPNFLRF-NH2 [FLP-1-2, C. elegans FMRFamide-like peptide, C-terminally amidated, synthesized by SPPS] |  |  |  |  | 2.48 x-fold of basal | 8.55 x-fold of basal | 4.14 x-fold of basal | 1.78 x-fold of basal | 0.99 x-fold of basal | 1.80 x-fold of basal |  |
| GLGPRPLAF-NH2 [[R8A]FLP-21, R8A control peptide of FLP-21, penultimate arginine exchanged for an alanine] |  |  | 0.88 x-fold of forskolin | 0.60 x-fold of forskolin |  |  |  |  |  |  |  |
| EASAFGDIIGELKGKGLGGRMRF-NH2 [FLP-27, NPY-like C. elegans FLP with C-terminal RxRF/Ya signature] | 0.66 x-fold of forskolin | 0.18 x-fold of forskolin |  |  |  |  |  |  |  |  |  |
| ASPSFIRF-NH2 [FLP-4-2, C. elegans FMRFamide-like peptide, C-terminally amidated, synthesized by SPPS] |  |  |  |  | 4.71 x-fold of basal | 12.66 x-fold of basal | 0.75 x-fold of basal | 0.75 x-fold of basal | 0.90 x-fold of basal | 1.98 x-fold of basal |  |
| APKPKFIRF-NH2 [FLP-5-1, C. elegans FMRFamide-like peptide, C-terminally amidated, synthesized by SPPS] |  |  |  |  | 2.00 x-fold of basal | 5.53 x-fold of basal | 1.08 x-fold of basal | 1.01 x-fold of basal | 0.91 x-fold of basal | 1.45 x-fold of basal | 2.00 x-fold of basal |
